This note sets out measurements from ChEMBL document CHEMBL3046622, “Synthesis and bioactivity of some new 1-tolyl-3-aryl-4-methylimidazole-2-thiones” (2007).

Holding throughout (format): functional
The test system of test [1] is Bacillus subtilis. The test is described as follows: Antibacterial activity against Bacillus subtilis at 2 mg/ml by agar well diffusion method. As to conditions: read-out: DIZ.
Test [2] concerns Callosobruchus analis. The test is described as follows: Insecticidal activity against Callosobruchus analis assessed as mortality at 200 ug/ml.
In test [3] the test system is Aspergillus flavus. The test is described as follows: Antifungal activity against Aspergillus flavus assessed as fungus growth at 200 mg/ml by agar dilution method relative to control.
Test [4] concerns Pseudomonas aeruginosa. The test is described as follows: Antibacterial activity against Pseudomonas aeruginosa assessed as bacterial growth at 200 mg/ml by agar dilution method relative to control.
Test [5] deals with Nakaseomyces glabratus. The test is described as follows: Antifungal activity against Candida glabrata assessed as fungus growth at 200 mg/ml by agar dilution method relative to control.
In test [6] the test system is Tribolium castaneum. The test is described as follows: Insecticidal activity against Tribolium castaneum (red flour beetle) assessed as mortality at 200 ug/ml.
In test [7] the test system is Escherichia coli. The test is described as follows: Antibacterial activity against Escherichia coli at 2 mg/ml by agar well diffusion method. As to conditions: read-out: DIZ.
The subject of test [8] is Rhyzopertha dominica. The test is described as follows: Insecticidal activity against Rhyzopertha dominica assessed as mortality at 200 ug/ml.
The test system of test [9] is Pseudomonas aeruginosa. The test is described as follows: Antibacterial activity against Pseudomonas aeruginosa at 2 mg/ml by agar well diffusion method. Particulars: read-out: DIZ.
Test [10] relates to Trichophyton longifusum. The test is described as follows: Antifungal activity against Trichophyton longifusum assessed as fungus growth at 200 mg/ml by agar dilution method relative to control.
Test [11] relates to Candida albicans. The test is described as follows: Antifungal activity against Candida albicans assessed as fungus growth at 200 mg/ml by agar dilution method relative to control.
Test [12] has as its system Sitophilus oryzae. The test is described as follows: Insecticidal activity against Sitophilus oryzae (rice weevil) assessed as mortality at 200 ug/ml.
The test system of test [13] is Fusarium solani. The test is described as follows: Antifungal activity against Fusarium solani assessed as fungus growth at 200 mg/ml by agar dilution method relative to control.
Test [14] has as its system Staphylococcus aureus. The test is described as follows: Antibacterial activity against Staphylococcus aureus at 2 mg/ml by agar well diffusion method. Particulars: read-out: DIZ.

In the case of `Cc1ccc(C(=O)n2cc(C)n(-c3ccc(Cl)cc3)c2=S)cc1`, the zone of inhibition at 2000 µg/mL in test [1] amounted to 13 mm; in test [7] it was 19 mm; in [9] it was 17 mm; in [14], 20 mm. The Activity in [2] is reported as 0%; in test [3] it was 69%; in test [4] it was 100%; in test [5] it was 100%; in test [6] it was 19%; in [8], 20%. Besides, the Activity is on record as 79% in test [10], 68% in [11], 10% in [12] and 85% in [13].

In the case of `COc1ccccc1C(=O)n1cc(C)n(-c2ccc(Cl)cc2)c1=S`, the Activity in [2] turned out to be 20%; in test [3], 65%; in [4] it was 90%; in [5] it was 100%; in [6], 51%; in test [8], 10%. Besides, the Activity in [10] was 80%; in test [11] it was 100%; in [12], 32%; in test [13], 100%. Besides, the zone of inhibition at 2000 µg/mL is 18 mm in test [7], 13 mm in test [9] and 10 mm in test [14].

Take `Cc1cccc(C(=O)n2cc(C)n(-c3ccccc3Cl)c2=S)c1`: the zone of inhibition at 2000 µg/mL in [1], in test [7] and in test [14] was 13 mm in each case. Further, the Activity is reported as 0% in [2]; 100% in [3]; 100% in test [4]; 100% in test [5]; 0% in test [6]; 0% in test [8]. Further, the Activity in test [10] is on record as 100%; in [11], 100%; in test [12], 0%; in test [13], 100%.

As for `Cc1cccc(C(=O)n2cc(C)n(-c3cccc(Cl)c3)c2=S)c1`, the zone of inhibition at 2000 µg/mL in [1] was 17 mm; in [7], 13 mm; in test [14] it was 13 mm. Moreover, the Activity is 0% in [2]; 100% in test [3]; 100% in [4]; 89% in test [5]; 29% in test [6]; 26% in test [8]. For the same compound, the Activity in [10] is listed as 100%; in [11] it was 100%; in test [12] it was 31%; in test [13] it was 76%.

For the compound `Cc1cccc(C(=O)n2cc(C)n(-c3ccc(Cl)cc3)c2=S)c1`, the zone of inhibition at 2000 µg/mL in [1] is 15 mm; in test [7], 13 mm. Also, the Activity in [2] was 60%; in test [3], 89%; in test [4], 100%; in test [5], 83%; in test [6] it was 0%; in test [8], 25%. Also, the Activity was determined as 75% in test [10], 65% in test [11], 26% in test [12] and 100% in [13].

For `Cc1cccc(C(=O)n2cc(C)n(-c3ccc(Br)cc3)c2=S)c1`, the zone of inhibition at 2000 µg/mL in test [1] was 15 mm; in test [7], 13 mm. The Activity in test [2] amounted to 0%; in test [3] it was 60%; in test [4], 78%; in test [5] it was 90%; in [6], 23%; in [8], 34%. The Activity is recorded as 77% in test [10], 89% in test [11], 19% in test [12] and 100% in test [13].

As for `Cc1ccc(C(=O)n2cc(C)n(-c3ccccc3Cl)c2=S)cc1`, the zone of inhibition at 2000 µg/mL in test [1] was found to be 15 mm; in test [7] it was 17 mm; in test [9], 12 mm; in test [14], 21 mm. Further, the Activity in test [2] worked out at 10%; in test [3], 86%; in [4] it was 100%; in test [5], 90%; in test [6], 20%; in test [8], 25%. Further, the Activity is recorded as 90% in [10], 100% in [11], 43% in test [12] and 100% in test [13].

As to `Cc1ccc(C(=O)n2cc(C)n(-c3cccc(Cl)c3)c2=S)cc1`, the zone of inhibition at 2000 µg/mL is 14 mm in [1], 20 mm in test [7], 16 mm in test [9] and 18 mm in test [14]. Besides, the Activity in [2] worked out at 30%; in [3], 100%; in test [4], 60%; in [5], 100%; in [6], 20%; in test [8] it was 18%. Also, the Activity worked out at 80% in [10], 100% in test [11], 14% in test [12] and 95% in [13].

Turning to `Cc1ccc(C(=O)n2cc(C)n(-c3ccc(Br)cc3)c2=S)cc1`, the zone of inhibition at 2000 µg/mL came out at 17 mm in [1], 14 mm in test [7], 13 mm in test [9] and 14 mm in test [14]. The Activity in [2] was found to be 0%; in [3], 100%; in test [4], 100%; in [5], 100%; in test [6], 20%; in test [8], 19%. Further, the Activity in test [10] stood at 90%; in test [11] it was 80%; in test [12], 31%; in test [13], 68%.

Take `Cc1ccc(C(=O)n2cc(C)n(-c3ccccc3C)c2=S)cc1`: the zone of inhibition at 2000 µg/mL in test [1] amounted to 18 mm; in [7], 18 mm; in [9] it was 10 mm; in test [14] it was 22 mm. The Activity in [3], in test [4], in test [5], in test [10], in test [11] and in [13] was 100% throughout.

For the compound `Cc1ccc(C(=O)n2cc(C)n(-c3cccc(C)c3)c2=S)cc1`, the zone of inhibition at 2000 µg/mL in [1] was determined as 10 mm; in [7] it was 12 mm; in test [9], 14 mm; in [14], 18 mm. Further, the Activity in test [3] is recorded as 100%; in test [4], 100%; in test [5], 100%; in test [10], 100%; in test [11], 92%; in test [13], 100%.

Turning to `CC1(C)S[C@@H]2[C@H](NC(=O)[C@H](N)c3ccc(O)cc3)C(=O)N2[C@H]1C(=O)O` [AMOXICILLIN], the zone of inhibition at 2000 µg/mL in [1] came to 34.9 mm; in [7] it was 13.3 mm; in test [9] it was 10 mm; in test [14], 25 mm.
